Data published in patent publication US20070099879A1 (priority 2005, published 2007).
Entries after “also recorded” stand apart in the source; their conditions may differ.

Experiments:
retinal EC [1] = assay: Retinal EC transwell migration assay; assay type: cell-based, mouse; details: 10 μM calcitriol, 3 h
Experimental: Retinal EC migration was determined using both wound migration and transwell assays. […] Wound closure was monitored by phase microscopy, and digital images were obtained at different time points used for quantitative assessment of migration. For transwell migration, wells (8 μm pore size, 6.5 mm membrane; Costar) were coated with Matrigel™ (200 μg/ml) or fibronectin (2 μg/ml) in PBS on the bottom side at 4° C. overnight. The next day, inserts were rinsed with PBS, blocked in PBS containing 2% BSA for 1 h at room temperature, and washed with PBS. Cells were removed by trypsin-EDTA, counted, and resuspended at 1×10^6 cells/ml in serum-free medium. Inserts were placed in 24-well dishes (Costar) containing 0.5 ml of serum-free medium and 0. 1 ml of cell suspension was then added to the top of the insert. […] The inserts were then mounted on a slide cell side up, and the number of cells which migrated to the bottom of the filter was determined by counting 10 high power fields at X200 magnification.
FIG. 5C illustrate is a quantification of the transwell assay as described above. […] Cells were removed by trypsin-EDTA, counted, and resuspended at 1×10^6 cells/ml in serum-free medium. […] The inserts were then mounted on a slide cell side up and the number of cells which migrated to the bottom of the filter was determined by counting 10 high power fields at ×200 magnification. […]

VEGF = assay: Western blot of VEGF in whole eye extracts of P15 mice during OIR; assay type: in vivo, mouse
Experimental: Vascular endothelial growth factor (VEGF) levels were determined by Western blotting of whole eye extracts prepared from P15 mice during OIR (5 days of hyperoxia and 3 days of normoxia) when maximum levels of VEGF were expressed (Wang S, et al. Attenuation of Retinal Vascular Development and Neovascularization during Oxygen-Induced Ischemic Retinopathy in Bcl-2 -/- Mice. Developmental Biol. 2005;279:205-219). Mice were euthanized by CO2 inhalation, then eyes from 2 or 3 mice dissected, homogenized in 0.2 ml of RIPA buffer, 10 mM HEPES pH 7.6, 142.5 mM KCl, 1% NP-40, and protease inhibitor cocktail, (Roche Applied Science, Indianapolis, Ind.), sonicated briefly, and incubated at 4° C. for 20 min. […] Supernatants were transferred to a clean tube, and protein concentrations were determined using the DC Protein Assay (Bio-Rad Laboratories, Hercules, Calif., Cat. No. 500-011 1). Approximately 20 μg of protein from the centrifuged homogenates were analyzed by SDS-PAGE (4-20% Tris-Glycin gel, Invitrogen, Carlsbad, Calif.) under reducing conditions and transferred to a nitrocellulose membrane. […] For quantitative assessments, the band intensities relative to loading controls were determined by scanning the blots using the Molecular Dynamics Storm 860 Scanner and Image Quant Software (Amersham Biosciences, Piscataway, N.J.).

[2] = Toxic effect assessment: body weight of mice during OIR; details: mouse, in vivo
Excerpt: In the OIR studies, all pups had similar body weight prior to initiation of the experiment (P12) and after exposure to high oxygen (P17).

[3] = test system: retinal neovascularization; assay: Mouse oxygen-induced ischemic retinopathy (OIR) model, retinal neovascularization; assay type: in vivo; details: for inhibition of neovascularization: P17 mice
Experimental: All experimental procedures involving animals were performed according to the ARVO Statement for the Use of Animals in Ophthalmic and Vision Research. […] In this model, 7-day-old (P7) pups (8-10 pups) and their mother were placed in an airtight incubator and exposed to an atmosphere of 75±0.5% oxygen (hyperoxia) for 5 days. Incubator temperature was maintained at 23±2° C., and oxygen was continuously monitored with a PROOX model 110 oxygen controller (Reming Bioinstruments Co., Redfield, N.Y.). Mice were then brought to room air for 5 days. Maximum retinal neovascularization occurred from P12 to P17. […] The other half of the littermates was injected with 0.1 ml of mineral oil. Generally one eye from each mouse was used for histochemical analysis and the other eye for histological evaluation as outlined below. These experiments were repeated at least 3 times for each dose.
Briefly, P17 mouse eyes were enucleated and briefly fixed in 4% paraformaldehyde in phosphate buffered saline (PBS) (10 min on ice). The paraformaldehyde fixed eyes were then fixed in 70% ethanol for at least 24 h at −20° C. Retinas were dissected in PBS and then washed with PBS 3 times, 10 min each. Following incubation in blocking buffer (50% fetal calf serum, 20% normal goat serum (NGS) in PBS) for 2h, the retinas were incubated with rabbit anti-mouse collagen IV (Chemicon, diluted 1:500 in PBS containing 20% fetal calf serum, 20% normal goat serum) at 4° C. overnight. Retinas were then washed 3 times with PBS, 10 min each, incubated with a secondary antibody Alexa 594-labeled goat-anti-rabbit (Invitrogen, Carlsbad, Calif.), at 1:500 dilution prepared in PBS containing 20% FCS, 20% NGS for 2 h at room temperature, washed 4 times with PBS (30 min each), and mounted on a slide with PBS/glycerol (2vol/1vol). Retinas were viewed by fluorescence microscopy, and images were captured in digital format using a Zeiss microscope (Carl Zeiss, Chester, Va.).
Quantification of retinal neovascularization on P17 was performed by counting vascular cell nuclei anterior to the […] (Wang S, et al., Attenuation of Retinal Vascular Development and Neovascularization during Oxygen-Induced Ischemic Retinopathy in Bcl-2 -/- Mice. Developmental Biol. 2005;279:205-219). Briefly, mice eyes were enucleated, fixed in formalin for 24 h, and embedded in paraffin. Serial sections (6 μm), each separated by at least 40 μm, were taken from around the region of the optic nerve. The hematoxylin- and PAS-stained sections were examined in masked fashion, by two independent observers without the knowledge of the samples identity, the presence of neovascular tufts projecting into the vitreous from the retina. […]

retinal EC [4] = assay: Retinal EC wound migration assay; assay type: cell-based, mouse; details: 10 μM calcitriol, 0, 24 and 48 hours
Experimental: Retinal EC migration was determined using both wound migration and transwell assays. […] Wound closure was monitored by phase microscopy, and digital images were obtained at different time points used for quantitative assessment of migration. For transwell migration, wells (8 μm pore size, 6.5 mm membrane; Costar) were coated with Matrigel™ (200 μg/ml) or fibronectin (2 μg/ml) in PBS on the bottom side at 4° C. overnight. The next day, inserts were rinsed with PBS, blocked in PBS containing 2% BSA for 1 h at room temperature, and washed with PBS. Cells were removed by trypsin-EDTA, counted, and resuspended at 1×10^6 cells/ml in serum-free medium. Inserts were placed in 24-well dishes (Costar) containing 0.5 ml of serum-free medium and 0. 1 ml of cell suspension was then added to the top of the insert. Cells were allowed to migrate through the filter for 3 h in a tissue culture incubator. After incubation, the cells on the top of the filter were scraped off using a cotton swab; the membrane was then fixed in 4% paraformaldehyde and stained with hematoxylin and eosin. The inserts were then mounted on a slide cell side up, and the number of cells which migrated to the bottom of the filter was determined by counting 10 high power fields at X200 magnification.

retinoblastoma = details: 0.05 μg/d, mice; cited from earlier work
[5] = test system: retinal endothelial cells; assay: Retinal endothelial cell capillary morphogenesis in Matrigel; assay type: cell-based, mouse; details: 10 μM calcitriol, 18 h
Experimental: The ability of the cultured retinal endothelial cells to form capillary like networks was assessed on Matrigel™ (B D Biosciences, San Jose, Calif.). The capillary morphogenesis assays in Matrigel™ were performed as previously described (Su X, et al., Isolation and characterization of murine retinal endothelial cells. Mol Vision. 2003;9:171-178; Rothermel T A, et al., Polyoma virus middle-T-transformed PECAM-1 deficient mouse brain endothelial cells proliferate rapidly in culture and form hemangiomas in mice. J Cell Physiol. 2005;202:230-239). Briefly, 0.5 ml of Matrigel™ was added to a cold 35 mm tissue culture plate and incubated at 37° C. for at least 30 min to allow the Matrigel™ to harden. […] Cultures were monitored for 6-48 h, and images were captured in digital format after 18 h when maximum organization was observed. […] The capillary network formed by control cells began to fall apart at 24-48 h.

[6] = test system: retinal endothelial cells; assay: Retinal endothelial cell proliferation assay (CellTiter 96 AQueous); assay type: cell-based, mouse; details: for Relative Survival: relative to solvent control
Experimental: Primary mouse retinal endothelial cell (REC) cultures were prepared and maintained as described previously (Su X, et al., Isolation and characterization of murine retinal endothelial cells. Mol Vision. 2003;9:171-178). Briefly, REC were isolated from wild type or transgenic-immortomouse by collagenase digestion of retina and affinity purification using magnetic beads coated with platelet/endothelial cell adhesion molecule-1 (anti-PECAM-1). The bound cells were plated on fibronectin-coated wells and expanded. The REC were characterized for expression and localization of endothelial cell markers by fluorescence-activated cell sorting (FACS) analysis and indirect immuno fluorescence staining. The ability of these cells to form capillary like networks was assessed on matrigel™. For cell proliferation assays, retinal endothelial cell (10,000) were plated in triplicate in 96-well plates and incubated overnight. […] The degree of proliferation was assessed using the nonradioactive cell proliferation assay (CellTiter 96® AQueous; Promega, Madison, Wis.) as recommended by the supplier.

SMILES: C=C1/C(=C\C=C2/CCC[C@]3(C)[C@@H]([C@H](C)CCCC(C)(C)O)CC[C@@H]23)C[C@@H](O)C[C@@H]1O [calcitriol, 1α,25-dihydroxyvitamin D3]
- retinal EC migration through filter coated with Matrigel (retinal EC [1]): no significant effect
- retinal EC migration through filters coated with fibronectin (retinal EC [1]; compared to solvent control (not shown)): slightly enhanced
- Relative Intensity of Expressed VEGF (VEGF; 0.025 μg (~5 μg/Kg), n = 3, P15 eye extracts, relative to β-catenin, mean ± SD, control 0.39 ± 0.08): 0.37 ± 0.06 (SD)
- difference in VEGF expression between control and calcitriol-treated eyes (VEGF; 5 μg/Kg, P15 mice during OIR): no significant difference
- Body Weight [2]: 5.04 ± 0.23
- mortality during OIR experiments [2]: None of the experimental animals died
- MEAN NUMBER OF ENDOTHELIAL NUCLEI ([3]; 0.025 μg (~5 μg/Kg), n = 4, mean ± SD, P17, control 39.9 ± 6.4, P < 0.001): 3.8 ± 2.2 (SD)
- inhibition of neovascularization ([3]; 0.5 μg/Kg calcitriol, vs control): 60%
- inhibition of neovascularization ([3]; 2.5 μg/Kg calcitriol, vs control): 75%
- inhibition of retinal neovascularization ([3]; 5 μg/Kg (0.025 μg) calcitriol i.p. per day P12 to P17, P17 mice, vs control): greater than 90%
- retinal EC wound migration vs ethanol control (retinal EC [4]): not significant
- decrease in retinal involvement of retinoblastoma compared to controls (retinoblastoma): 50%
- capillary morphogenesis in Matrigel [5]: completely inhibited; also recorded: completely abolished
- capillary morphogenesis in Matrigel ([5]; listed as Calcitriol): no capillaries are observed
- Relative Survival ([6]; 0.25 μM calcitriol, 3 days): 108%
- Relative Survival ([6]; 0.50 μM calcitriol, 3 days): 111%
- Relative Survival ([6]; 10.00 μM calcitriol, 3 days): 111%
- Relative Survival ([6]; 50.00 μM calcitriol, 3 days): 87%
- Relative Survival ([6]; 100.00 μM calcitriol, 3 days): 12%
- inhibition at 100 µM ([6]; Mus musculus, Endothelial cell, 72 h, read-out: inhibition of retinal endothelial cell proliferation, 100 μM calcitriol, 3 days): 90%
- effect on retinal endothelial cell proliferation ([6]; calcitriol 0-10 μM, 9 days): no effect; also recorded: minimal effects
- effect on retinal endothelial cell proliferation ([6]; calcitriol 50 μM and higher): significant inhibition; also recorded: Significant toxicity
- effect on retinal endothelial cell proliferation ([6]; calcitriol up to 10 μM, 3 days): No significant inhibition
- effect on retinal endothelial cell proliferation ([6]; calcitriol up to 10 μM, 3 days, listed as Calcitriol): no effect
